This data set is described as follows: Conversion of the modified indigo compound to indigo under hydrolyzing conditions. The format is physicochemical. How it is done: The hydrolysis is performed using any chemical compound or condition that is capable of converting the dye compound to indigo. In some embodiments, the hydrolysis is performed in aqueous compositions which contain a hydrolyzing agent. In other embodiments, the hydrolyzing agent may be selected by one skilled in the art and may include, without limitation, a base, heat, steam, or a combination thereof.

Regarding `O=C1/C(=C2/C(=O)c3ccccc3N2C(=O)c2ccncc2)N(C(=O)c2ccncc2)c2ccccc21` [Compound 37], the hydrolysis to indigo entry was “hydrolyzes to indigo”.
